Data published in patent publication US20050142111A1, “Method to prevent transplant rejection by stable expression of heme oxygenase-1” (priority 2003, published 2005).

What was measured:
[1] = system: LEW heart grafts to F344 recipients; test: Allogeneic heart transplant graft survival; format: in vivo, rat
Procedure: LEW (RT1′) and F344 (RT1^lvl) rats were purchased from the Institute of Laboratory Animals, Medical School Hannover, Germany, and maintained in the Laboratory Animal Unit, The University of Hong Kong. All experimental procedures were performed according to institutional guidelines and approved by the Committee on the Use of Live Animal in Teaching and Research. Allogeneic heart transplants were performed using LEW and F344 rats weighing from 200-250 grams as donors or recipients respectively. For the syngeneic graft, LEW rats were used as recipients. In brief, after in situ perfusion of donor heart grafts with the HTK solution (Koehler Chemie, Germany), 1×10^12 vector genomes of rAAV/GFP or rAAV/HO-1 were administered into the heart graft via the coronary artery. Grafts were then preserved in cold HTK solution for 6 hours before the transplant. The implantation procedure was as described in the literature. Graft function was monitored by daily palpation, and the allograft rejection was defined by full cessation of ventricular contraction, and confirmed by pathological examination.
Heme oxygenase-1 inhibitor, zinc protoprophyrin IX (ZnPPIX, Calbiochem-Novabiochem, Germany) was administered intraperitoneally according to the experimental protocols. […]

HO = target: T1, HO (Rattus norvegicus, UniProt P06762); test: Blocking of HO activity by ZnPPIX, carboxyhemoglobin in peripheral blood of recipients; format: in vivo; settings: 2 mg/kg/day intraperitoneally to recipients
T1 construct: expressed in transfected cells; host or cells: LEW rat heart allografts transduced with rAAV/HO-1, in F344 rat recipients (in vivo)
T1 sequence (P06762 1-289): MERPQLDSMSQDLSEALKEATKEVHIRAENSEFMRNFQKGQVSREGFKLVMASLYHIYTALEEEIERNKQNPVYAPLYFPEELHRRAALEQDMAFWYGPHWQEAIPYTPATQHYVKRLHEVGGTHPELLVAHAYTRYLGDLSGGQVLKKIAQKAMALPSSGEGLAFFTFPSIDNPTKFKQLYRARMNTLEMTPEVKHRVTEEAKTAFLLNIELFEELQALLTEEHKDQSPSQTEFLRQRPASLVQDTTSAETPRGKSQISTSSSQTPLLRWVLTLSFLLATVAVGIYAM
Procedure: Heme oxygenase-1 inhibitor, zinc protoprophyrin IX (ZnPPIX, Calbiochem-Novabiochem, Germany) was administered intraperitoneally according to the experimental protocols.
The HO enzyme activity was measured by two of its end products: carbon monoxide and biliverdin/bilirubin. The amount of carbon monoxide was measured by spectrophotometry providing a determination of carboxyhemoglobin in the peripheral blood of the animals. The level of intragraft bilirubin was measured by the method as described. In brief, the frozen samples of grafts were homogenized in ice-cold sucrose and Tri-HCl buffer. The microsomal pellet was obtained after centrifugation, and re-suspended in MgCl2-potassium phosphate buffer. Sample protein was then incubated with the reaction mixture containing rat liver cytosol, hemin, glucose-6-phosphate, glucose-6-phosphate dehydrogenase and NADPH (Sigma-Aldrich, St. Louis) for 60 minutes at 37° C. The generated bilirubin was measured by reacting with diazotized surfanilic acid to yield azobilirubin using spectrophotometry. The level of intragraft bilirubin was deduced by the ratio of its contents in the sample/naive heart. […]

For C=CC1=C(C)c2cc3[n-]c(cc4[n-]c(cc5nc(cc1n2)C(C)=C5C=C)c(C)c4CCC(=O)O)c(CCC(=O)O)c3C.[Zn+2] [ZnPPIX, zinc protoporphyrin IX], the “graft survival rate in rAAV/HO-1+CsA group” value ([1]; ZnPPIX administered from day 31 to 100) was “remained unchanged”, the “graft survival in rAAV/HO-1+CsA group” value ([1]; combined administration of ZnPPIX from day 0 to 30) was “shortened” and the “HO activity, level of carboxyhemoglobin” value (HO) was “significantly inhibited”.
